Like-named read-outs stand apart in the source and are kept apart here.
Legend:
[1] = Pharmacokinetic assay in Balb/c mice (plasma and brain tissue); format: in vivo; details: mouse, po, 5 mg/kg p.o., male Balb/c mice; for AUC(0-t): read-out: Area under curve AUC0-t; for AUC(0-inf): read-out: Area under curve AUC0-∞; for half-life: read-out: Half-life t1/2 (converted); for MRT: read-out: Mean residence time MRT; for Tmax: read-out: Peak time tmax; for Cmax: read-out: Plasma concentration Cmax
Procedure, shortened: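 Compound levels in plasma and brain were measured by LC/MS/MS with an internal standard after protein precipitation with acetonitrile. Samples came from overnight-fasted male Balb/c mice given 5 mg/kg p.o., with cardiac blood drawn at 0–24 h. Pharmacokinetic parameters were then calculated.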

[2] = system: PTZ-induced epilepsy model in CD-1 mice; experiment: In vivo pharmacodynamic test in the PTZ-induced epilepsy model in mice; details: dose 3 mpk p.o., PTZ 120 mg/kg s.c., 30 min observation
Procedure: The PTZ-induced epilepsy model in CD-1 mice was established, and the antiepileptic effect of the compounds of Example 3, Example 60, Example 61 and Example 74 was evaluated using this model.
50 male CD-1 mice were purchased from Beijing Vital River Laboratory Animal Technology Co. Ltd. The test animals were adapted at the animal room in the third building of Shanghai ChemPartner Co., Ltd for 7 days before the test. The average body weight of the animals on the test day was 32.2±0.2 grams. Feeding environment: 5 animals/cage, room temperature 23±2° C., 12/12 hours of light and dark cycle, free acess to food and water.
4.2.1 Test Equipments • 1 ml sterile disposable syringe with needle (purchased from Zhejiang Kangdelai Medical Devices Co., Ltd.) • Pipette: Eppendorf Research Plus (100-1000 L) • Vortex mixer: Kylin-Bell Vortex 5 • Ultrasonic instrument: JL-360 ultrasonic cleaner • Balance: METTLER TOLEDO™ XS204 precision balance (note: METTLER TOLEDO™ is a kind of balance used in labs and industry) • Balance: METTLER TOLEDO™ XS6002S electronic balance (note: METTLER TOLEDO™ is a kind of balance used in labs and industry) • Plexiglass box: 25 cm length*15 cm width*15 cm height with one opaque side wall, custom made by Suzhou Fengshi Laboratory Animal Equipment Co., Ltd • 3-channel timer: Oregon/Model NO.WB-388. 4.2.2 Test Animal Grouping • 1) Vehicle/PTZ: 0.5% CMC-Na+1% Tween-80 (10 ml/kg, p.o.), administered 0.5 hr before the PTZ administration; PTZ ([…], s.c.), administered before the test; • 2) 3 mg/kg of the compounds of Examples/PTZ: the compounds of Example 3, Example 60, Example 61 and Example 74 (3 mg/kg, 10 ml/kg, p.o.), administered 0.5 hr before the PTZ administration; PTZ ([…], s.c.), administered before the test. 4.3 Experimental Procedures 4.3.1 Solvent Formulation 1) 0.5% CMC-Na+1% Tween-80 (Administration Volume: 10 mL/Kg):
4.4 Adaptation to the Environment
The mice were randomly grouped, marked and weighed; 10 mice per group. The test compound was administered orally at an administration volume of 10 mL/kg 30-60 minutes before the PTZ administration.
PTZ (120 mg/kg) was administrated subcutaneously before the test observation, and this time point was recorded as the observation start point; after the administration of PTZ, the animal was immediately placed in the observation box and observed for 30 minutes, and the followings were recorded: a) the incubation period of the first clonic seizure, b) the incubation period of the first generalized tonic seizure, c) the number of clonic seizures, d) the number of generalized tonic seizures, e) the time when the animal died.
All measurement data were expressed as Mean±SEM, and analysed with Prism 6.0 statistical software.

forced-swimming mice = experiment: In vivo pharmacodynamic test in the forced swimming model in mice; details: dose 5 mpk p.o., 100*floating time/240 s, ICR mice
Procedure: The antidepressant effect of the compound was evaluated by the forced swimming model in mice.
Male ICR mice (25-35 g) were adapted in the test environment for 3 days before the forced swimming test.
According to the test design, the mice were randomly grouped on the day before the test according to body weight, with 12 mice in each group. Before the test, the compounds of each example were administered intragastrically according to the Tmax thereof in the brain in mice pharmacokinetic test as follows: • 1) Model group (0.5% CMC-Na-1% Tween 80 solution, p.o., 10 mL/kg); • 2) Compounds of Example 2, Example 3, Example 5, Example 6, Example 9, Examples 59-63, Examples 71-73, Example 103, Example 135, Example 137, Example 145 and Example 146 (10 mg/kg, p.o., 10 mL/kg); Example 13 and Example 74 (5 mg/kg, p.o., 5 mL/kg).
When being administered, the compounds of each example were suspended in 0.5% CMC-Na+1% Tween 80 solution to the desired concentration.
0.5-1 hour after administration, ICR mice were placed in a forced swimming device (transparent glass drum (water depth 18 cm, water temperature 25-26° C.), one mouse per tank) and forced to swim for 6 minutes. The forced swimming device recorded the floating time of the ICR mice during the entire 6 minutes, and the data of the latter four minutes were used for data analysis. The mice were taken out immediately after the swimming test, wiped dry and put back in their original cages.
Note: The criterion for determining the immobility time is that the mouse stops struggling in water and floats, and there are only slight limb movements to keep the head floating on the water.
3.4 Data Analysis Floating time percentage=100*floating time/240 s.

## Cc1nnn(CC(=O)[C@H]2C[C@@H](C3CC3)[C@H]3[C@@H]4CC[C@@H]5C[C@](C)(O)CC[C@@H]5[C@H]4CC[C@@]32C)n1 [Example 74, 1-((3R,5R,8R,9R,10S,13S,14S,15S,17S)-15-Cyclopropyl-3-hydroxy-3,13-dimethylhexadecahydro-TH-cyclopenta[a]phenanthren-17-yl)-2-(5-methyl-2H-tetrazol-2-yl)ethan-1-one]
[1]; brain tissue
  AUC(0-t): 5850 ng·h/mL
  AUC(0-inf): 6510 ng·h/mL
  half-life: 2.28 h
  MRT: 3.82 h
  Tmax: 1 h
  Cmax: 1520 ng/mL
[1]; plasma
  AUC(0-t): 7160 ng·h/mL
  AUC(0-inf): 8600 ng·h/mL
  half-life: 3.06 h
  MRT: 4.59 h
  Tmax: 0.5 h
  Cmax: 2140 ng/mL
[2]
  Incubation period of the clonic seizure, Mean ± SEM: 635.4 ± 149.9 s
  Incubation period of the generalized tonic seizure, Mean: 1506.8 ± 149.8 s
  Mortality rate: 30%
  Number of clonic seizures, Mean: 1.8 ± 0.3
  Number of generalized tonic seizures, Mean: 0.3 ± 0.2
  Time when the animal died, Mean: 1618.1 ± 121.3 s
forced-swimming mice
  Mean (immobility, %): 38.00%
